From PubChem BioAssay (NCI)
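96-well plates; 48 h exposure; 5 concentrations. Endpoints by linear interpolation between flanking doses. Not reached: highest tested concentration assigned. Here, GI50 denotes the concentration required for 50% inhibition of growth. Definition used: TGI = concentration required for complete inhibition of growth.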

How the values were obtained:
Assay in all cases: NCI-60 cell line screen, 48 h
786-0 renal = system: 786-0 renal
A498 renal = system: A498 renal
A549 NSCLC = system: A549 NSCLC
ACHN renal = system: ACHN renal
BT-549 breast = system: BT-549 breast
CCRF-CEM leukemia = system: CCRF-CEM leukemia
DU-145 prostate = system: DU-145 prostate
EKVX NSCLC = system: EKVX NSCLC
HCC-2998 colon = system: HCC-2998 colon
HCT-116 colon = system: HCT-116 colon
HCT-15 colon = system: HCT-15 colon
HL-60(TB) leukemia = system: HL-60(TB) leukemia
HOP-62 NSCLC = system: HOP-62 NSCLC
HOP-92 NSCLC = system: HOP-92 NSCLC
HS 578T breast = system: HS 578T breast
HT29 colon = system: HT29 colon
IGROV1 ovarian = system: IGROV1 ovarian
K-562 leukemia = system: K-562 leukemia
KM12 colon = system: KM12 colon
LOX IMVI melanoma = system: LOX IMVI melanoma
M14 melanoma = system: M14 melanoma
MALME-3M melanoma = system: MALME-3M melanoma
MCF7 breast = system: MCF7 breast
MDA-MB-231 breast = system: MDA-MB-231 breast
MDA-MB-435 = system: MDA-MB-435
MOLT-4 leukemia = system: MOLT-4 leukemia
NCI-H226 lung = system: NCI-H226 lung
NCI-H23 lung = system: NCI-H23 lung

**Q.** With CCOC(=O)/C=C1/SC(=Nc2ccc(C#N)cc2)N(Cc2ccco2)C1=O as the compound, how does the GI50 (786-0 renal) read?
**A.** 1.93 µM

**Q.** What about the TGI (786-0 renal) of the same compound?
**A.** 4.17 µM

**Q.** And the GI50 (A498 renal)?
**A.** 14.8 µM

**Q.** What about the TGI (A498 renal) of the same compound?
**A.** 30 µM

**Q.** And the GI50 (A549 NSCLC)?
**A.** 10.4 µM

**Q.** And the TGI (A549 NSCLC)?
**A.** 26.1 µM

**Q.** And the GI50 (ACHN renal)?
**A.** 1.78 µM

**Q.** And the TGI (ACHN renal)?
**A.** 3.33 µM

**Q.** And the GI50 (BT-549 breast)?
**A.** 10.8 µM

**Q.** What about the TGI (BT-549 breast) of the same compound?
**A.** 52.6 µM

**Q.** And the GI50 (CCRF-CEM leukemia)?
**A.** 3.17 µM

**Q.** What about the TGI (CCRF-CEM leukemia) of the same compound?
**A.** > 100 µM

**Q.** And the GI50 (DU-145 prostate)?
**A.** 3.17 µM

**Q.** What about the TGI (DU-145 prostate) of the same compound?
**A.** 10.5 µM

**Q.** And the GI50 (EKVX NSCLC)?
**A.** 5.66 µM

**Q.** And the TGI (EKVX NSCLC)?
**A.** 30.2 µM

**Q.** And the GI50 (HCC-2998 colon)?
**A.** 3.67 µM

**Q.** What about the TGI (HCC-2998 colon) of the same compound?
**A.** 15.8 µM

**Q.** And the GI50 (HCT-116 colon)?
**A.** 2.06 µM

**Q.** And the TGI (HCT-116 colon)?
**A.** 4.97 µM

**Q.** And the GI50 (HCT-15 colon)?
**A.** 2.02 µM

**Q.** And the TGI (HCT-15 colon)?
**A.** 5.13 µM

**Q.** What about the GI50 (HL-60(TB) leukemia) of the same compound?
**A.** 2.38 µM

**Q.** And the TGI (HL-60(TB) leukemia)?
**A.** 5.76 µM

**Q.** And the GI50 (HOP-62 NSCLC)?
**A.** 2.94 µM

**Q.** And the TGI (HOP-62 NSCLC)?
**A.** 9.21 µM

**Q.** What about the GI50 (HOP-92 NSCLC) of the same compound?
**A.** 4.51 µM

**Q.** What about the TGI (HOP-92 NSCLC) of the same compound?
**A.** 22.9 µM

**Q.** What about the GI50 (HS 578T breast) of the same compound?
**A.** 6.96 µM

**Q.** And the TGI (HS 578T breast)?
**A.** > 100 µM

**Q.** And the GI50 (HT29 colon)?
**A.** 2.11 µM

**Q.** What about the TGI (HT29 colon) of the same compound?
**A.** 4.61 µM

**Q.** What about the GI50 (IGROV1 ovarian) of the same compound?
**A.** 3.22 µM

**Q.** What about the TGI (IGROV1 ovarian) of the same compound?
**A.** 20.2 µM

**Q.** And the GI50 (K-562 leukemia)?
**A.** 3.16 µM

**Q.** And the TGI (K-562 leukemia)?
**A.** 11.4 µM

**Q.** What about the GI50 (KM12 colon) of the same compound?
**A.** 2.13 µM

**Q.** And the TGI (KM12 colon)?
**A.** 5.01 µM

**Q.** What about the GI50 (LOX IMVI melanoma) of the same compound?
**A.** 1.72 µM

**Q.** What about the TGI (LOX IMVI melanoma) of the same compound?
**A.** 3.32 µM

**Q.** And the GI50 (M14 melanoma)?
**A.** 2.22 µM

**Q.** And the TGI (M14 melanoma)?
**A.** 6.55 µM

**Q.** And the GI50 (MALME-3M melanoma)?
**A.** 2.45 µM

**Q.** What about the TGI (MALME-3M melanoma) of the same compound?
**A.** 9.65 µM

**Q.** And the GI50 (MCF7 breast)?
**A.** 2.7 µM

**Q.** What about the TGI (MCF7 breast) of the same compound?
**A.** 12.7 µM

**Q.** And the GI50 (MDA-MB-231 breast)?
**A.** 4.29 µM

**Q.** And the TGI (MDA-MB-231 breast)?
**A.** 23.5 µM

**Q.** What about the GI50 (MDA-MB-435) of the same compound?
**A.** 3.44 µM

**Q.** What about the TGI (MDA-MB-435) of the same compound?
**A.** 15.8 µM

**Q.** What about the GI50 (MOLT-4 leukemia) of the same compound?
**A.** 2.81 µM

**Q.** What about the TGI (MOLT-4 leukemia) of the same compound?
**A.** 8.31 µM

**Q.** And the GI50 (NCI-H226 lung)?
**A.** 2.22 µM

**Q.** And the TGI (NCI-H226 lung)?
**A.** 4.76 µM

**Q.** What about the GI50 (NCI-H23 lung) of the same compound?
**A.** 10.6 µM

**Q.** And the TGI (NCI-H23 lung)?
**A.** 34.5 µM
